From patent publication US20230019236A1, “PROTEIN TYROSINE PHOSPHATASE INHIBITORS AND METHODS OF USE THEREOF” (Calico Life Sciences LLC, priority 2019, published 2023)

How the values were obtained:
[1] = molecular target: T1, His tagged PTPN2 (TC45) protein (Homo sapiens, UniProt P17706); assay: Mobility Shift Assay used to determine potency of PTPN2 inhibitors; format: biochemical; conditions: Table 2; read-out: PTPN2 MSA IC50
T1 construct: made in house
T1 sequence (P17706 with tags, fused parts or gaps isoform P17706-2): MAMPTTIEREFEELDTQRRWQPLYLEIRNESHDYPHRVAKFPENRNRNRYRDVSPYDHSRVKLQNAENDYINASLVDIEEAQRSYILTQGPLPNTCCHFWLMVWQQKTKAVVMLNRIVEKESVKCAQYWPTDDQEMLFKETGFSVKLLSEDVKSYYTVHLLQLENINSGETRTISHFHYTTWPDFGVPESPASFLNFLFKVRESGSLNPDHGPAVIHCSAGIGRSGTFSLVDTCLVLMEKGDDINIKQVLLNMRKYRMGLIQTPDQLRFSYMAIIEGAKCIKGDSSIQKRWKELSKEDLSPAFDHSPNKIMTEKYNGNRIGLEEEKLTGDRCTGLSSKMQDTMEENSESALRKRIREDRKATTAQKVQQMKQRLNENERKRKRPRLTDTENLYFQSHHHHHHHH
Experimental: Example 292: Mobility Shift Assay used to determine potency of PTPN2 inhibitors
Compound activity was determined using in house His tagged PTPN2 (TC45) protein (SEQ ID NO: 1) in an in vitro enzymatic reaction. The enzymatic assay used to determine activity was a mobility shift assay using a LabChip EZ Reader by Caliper Life Sciences. The enzymatic reaction was carried out in assay buffer (50 mM HEPES pH 7.5, 1 mM EGTA, 10 mM EDTA, 0.01% Tween® 20, and 2 mM DTT). The compounds were dispensed on a white 384 well ProxiPlate™ (PerkinElmer Catalog#6008289) plate using the Labcyte Echo at varying concentrations (12 point, 1:3 dilution). The enzyme (at 0.5 nM) was incubated with compound for 10 minutes at room temperature. Then the substrate (phosphorylated insulin receptor probe sequence: ((OG488)—{NH—CH2—CH2—O—CH2—CH2—O—CH2—CO)—T—R—D—I—(PY)—E—T—D—Y—Y—R—K—K—NH2) (SEQ ID NO: 2) was added at 2 μM to the plates and incubated for another 10 minutes at room temperature. Finally, a quench solution (water and 4-bromo-3-(2-oxo-2-propoxyethoxy)-5-(3-{[1-(phenylmethanesulfonyl)piperidin-4-yl]amino}phenyl)thiophene-2-carboxylic acid) was added to the plates, which were then run on the EZ Reader (excitation 488 nm, emission 530 nm) to measure % conversion (the amount of phosphorylated substrate which was de-phosphorylated by PTPN2). […] The % inhibition was then used to calculate the IC50 values.

[2] = molecular target: T2, His tagged full-length PTP1B protein (Homo sapiens, UniProt P18031); assay: Mobility Shift Assay (MSA) used to determine potency of PTP1B inhibitors; format: biochemical; conditions: Table 2
T2 construct: made in house
T2 sequence (P18031 with tags, fused parts or gaps): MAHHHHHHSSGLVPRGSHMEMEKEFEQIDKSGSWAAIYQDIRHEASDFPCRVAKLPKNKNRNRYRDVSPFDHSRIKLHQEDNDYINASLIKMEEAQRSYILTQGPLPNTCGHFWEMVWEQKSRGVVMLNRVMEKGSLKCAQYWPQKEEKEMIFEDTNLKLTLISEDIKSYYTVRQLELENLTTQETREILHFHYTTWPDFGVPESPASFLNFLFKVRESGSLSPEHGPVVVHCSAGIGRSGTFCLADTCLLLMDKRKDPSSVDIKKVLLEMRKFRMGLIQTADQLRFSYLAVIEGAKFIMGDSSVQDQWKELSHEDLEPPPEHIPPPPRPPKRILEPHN
Experimental: The enzymatic assay used to determine activity is a mobility shift assay using a LabChip EZ Reader by Caliper Life Sciences. The enzymatic reaction was carried out in assay buffer (50 mM HEPES pH 7.5, 1 mM EGTA, 10 mM EDTA, 0.01% Tween® 20, and 2 mM DTT). […] The enzyme (at 0.5 nM) was incubated with compound for 10 minutes at room temperature. […] The % inhibition was then used to calculate the IC50 values.

SMILES	IC50 [2]	IC50 [1]
C[C@](O)(CO)CCOc1ccc2cc(O)c(N3CC(=O)NS3(=O)=O)c(F)c2c1 [Compound 343, 5-{7-[(3R)-3,4-dihydroxy-3-methylbutoxy]-1-fluoro-3-hydroxynaphthalen-2-yl}-1λ^6,2,5-thiadiazolidine-1,1,3-trione]	1 to 10 nM	< 1 nM
CCCCOc1cc2c(F)c(N3CC(=O)NS3(=O)=O)c(O)cc2cc1O [Compound 363, 5-(7-butoxy-1-fluoro-3,6-dihydroxynaphthalen-2-yl)-1λ^6,2,5-thiadiazolidine-1,1,3-trione]	< 1 nM	< 1 nM
CCC(O)COc1ccc2cc(O)c(N3CC(=O)NS3(=O)=O)c(F)c2c1 (stereo not drawn) [Compound 327, 5-[1-fluoro-3-hydroxy-7-(2-hydroxybutoxy)naphthalen-2-yl]-1λ^6,2,5-thiadiazolidine-1,1,3-trione]	< 1 nM	< 1 nM
NCCCS(=O)(=O)N1CC=C(c2ccc3cc(O)c(N4CC(=O)NS4(=O)=O)c(F)c3c2)C1 [Compound 345, 5-{7-[1-(3-aminopropane-1-sulfonyl)-2,5-dihydro-1H-pyrrol-3-yl]-1-fluoro-3-hydroxynaphthalen-2-yl}-1λ^6,2,5-thiadiazolidine-1,1,3-trione]	1 to 10 nM	< 1 nM
O=C1CN(c2c(O)cc3ccc(OCCNS(=O)(=O)C4CC4)cc3c2F)S(=O)(=O)N1 [Compound 127, N-(2-{[8-fluoro-6-hydroxy-7-(1,1,4-trioxo-1λ^6,2,5-thiadiazolidin-2-yl)naphthalen-2-yl]oxy}ethyl)cyclopropanesulfonamide]	1 to 10 nM	1 to 10 nM
C[C@@H](O)C[C@@H](O)COc1ccc2cc(O)c(N3CC(=O)NS3(=O)=O)c(F)c2c1 (racemic) [Compound 325, 5-(7-{[rac-(2R,4R)-2,4-dihydroxypentyl]oxy}-1-fluoro-3-hydroxynaphthalen-2-yl)-1λ^6,2,5-thiadiazolidine-1,1,3-trione]	1 to 10 nM	1 to 10 nM
O=C1CN(c2c(O)cc3ccc(OCCN4CCNC4=O)cc3c2F)S(=O)(=O)N1 [Compound 326, 5-{1-fluoro-3-hydroxy-7-[2-(2-oxoimidazolidin-1-yl)ethoxy]naphthalen-2-yl}-1λ^6,2,5-thiadiazolidine-1,1,3-trione]	10 to 100 nM	< 1 nM
NCCOc1ccc2c(F)c(N3CC(=O)NS3(=O)=O)c(O)cc2c1 [Compound 337, 5-[6-(2-aminoethoxy)-1-fluoro-3-hydroxynaphthalen-2-yl]-1λ^6,2,5-thiadiazolidine-1,1,3-trione]	10 to 100 nM	10 to 100 nM
CC(C)(O)CCNc1ccc2c(F)c(N3CC(=O)NS3(=O)=O)c(O)cc2c1 [Compound 333, 5-{1-fluoro-3-hydroxy-6-[(3-hydroxy-3-methylbutyl)amino]naphthalen-2-yl}-1λ^6,2,5-thiadiazolidine-1,1,3-trione]	10 to 100 nM	10 to 100 nM
CC(C)(CO)CS(=O)(=O)N1CC=C(c2ccc3cc(O)c(N4CC(=O)NS4(=O)=O)c(F)c3c2)C1 [Compound 344, 5-{1-fluoro-3-hydroxy-7-[1-(3-hydroxy-2,2-dimethylpropane-1-sulfonyl)-2,5-dihydro-1H-pyrrol-3-yl]naphthalen-2-yl}-1λ^6,2,5-thiadiazolidine-1,1,3-trione]	< 1 nM	< 1 nM
CC(C)(C)CCOc1cc2c(F)c(N3CC(=O)NS3(=O)=O)c(O)cc2cc1O [Compound 359, 5-[7-(3,3-dimethylbutoxy)-1-fluoro-3,6-dihydroxynaphthalen-2-yl]-1λ^6,2,5-thiadiazolidine-1,1,3-trione]	< 1 nM	< 1 nM
O=C1CN(c2c(O)cc3ccc(NCCCC(F)F)cc3c2F)S(=O)(=O)N1 [Compound 324, 5-{7-[(4,4-difluorobutyl)amino]-1-fluoro-3-hydroxynaphthalen-2-y}-1λ^6,2,5-thiadiazolidine-1,1,3-trione]	< 1 nM	< 1 nM
CC(C)(C)CCOc1ccc2cc(O)c(N3CC(=O)NS3(=O)=O)c(F)c2c1 [Compound 352, 5-[7-(3,3-dimethylbutoxy)-1-fluoro-3-hydroxynaphthalen-2-yl]-1λ^6,2,5-thiadiazolidine-1,1,3-trione]	< 1 nM	< 1 nM
O=C1CN(c2c(O)cc3cc(OCC4CC4)ccc3c2F)S(=O)(=O)N1 [Compound 338, 5-[6-(cyclopropylmethoxy)-1-fluoro-3-hydroxynaphthalen-2-yl]-1λ^6,2,5-thiadiazolidine-1,1,3-trione]	10 to 100 nM	10 to 100 nM

Continued, in another order:

IC50 [2]	SMILES	IC50 [1]
1 to 10 nM	CC(C)NCCCc1ccc2cc(O)c(N3CC(=O)NS3(=O)=O)c(F)c2c1 [Compound 349, 5-(1-fluoro-3-hydroxy-7-{3-[(propan-2-yl)amino]propyl}naphthalen-2-yl)-1λ^6,2,5-thiadiazolidine-1,1,3-trione]	1 to 10 nM
1 to 10 nM	O=C1CN(c2c(O)cc3cc(O)c(Br)cc3c2F)S(=O)(=O)N1 [Compound 370, 5-(7-bromo-1-fluoro-3,6-dihydroxynaphthalen-2-yl)-1λ^6,2,5-thiadiazolidine-1,1,3-trione]	1 to 10 nM
< 1 nM	O=C1CN(c2c(O)cc3ccc(OCCC4CCCC4)cc3c2F)S(=O)(=O)N1 [Compound 351, 5-[7-(2-cyclopentylethoxy)-1-fluoro-3-hydroxynaphthalen-2-yl]-1λ^6,2,5-thiadiazolidine-1,1,3-trione]	< 1 nM
< 1 nM	O=C1CN(c2c(O)cc3ccc(OCCC4CCOC4)cc3c2F)S(=O)(=O)N1 (stereo not drawn) [Compound 350, 5-{1-fluoro-3-hydroxy-7-[2-(oxolan-3-yl)ethoxy]naphthalen-2-yl}-1λ^6,2,5-thiadiazolidine-1,1,3-trione]	< 1 nM
< 1 nM	O=C1CN(c2c(O)cc3ccc(C4=CCN(S(=O)(=O)CCCO)C4)cc3c2F)S(=O)(=O)N1 [Compound 369, 5-{1-fluoro-3-hydroxy-7-[1-(3-hydroxypropane-1-sulfonyl)-2,5-dihydro-1H-pyrrol-3-yl]naphthalen-2-yl}-1λ^6,2,5-thiadiazolidine-1,1,3-trione]	< 1 nM
1 to 10 nM	COc1cc2c(F)c(N3CC(=O)NS3(=O)=O)c(O)cc2cc1O [Compound 357, 5-(1-fluoro-3,6-dihydroxy-7-methoxynaphthalen-2-yl)-1λ^6,2,5-thiadiazolidine-1,1,3-trione]	1 to 10 nM
< 1 nM	O=C1CN(c2c(O)cc3cc(O)c(OCCC4CCC4)cc3c2F)S(=O)(=O)N1 [Compound 362, 5-[7-(2-cyclobutylethoxy)-1-fluoro-3,6-dihydroxynaphthalen-2-yl]-1λ^6,2,5-thiadiazolidine-1,1,3-trione]	< 1 nM
< 1 nM	O=C1CN(c2c(O)cc3cc(O)c(OCCC4CCCO4)cc3c2F)S(=O)(=O)N1 (stereo not drawn) [Compound 360, 5-{1-fluoro-3,6-dihydroxy-7-[2-(oxolan-2-yl)ethoxy]naphthalen-2-yl}-1λ^6,2,5-thiadiazolidine-1,1,3-trione]	< 1 nM
< 1 nM	C[C@@](O)(CC#N)CCOc1ccc2cc(O)c(N3CC(=O)NS3(=O)=O)c(F)c2c1 [Compound 346, (3R)-5-{[8-fluoro-6-hydroxy-7-(1,1,4-trioxo-1λ^6,2,5-thiadiazolidin-2-yl)naphthalen-2-yl]oxy}-3-hydroxy-3-methylpentanenitrile]	< 1 nM
1 to 10 nM	CCc1cc2c(F)c(N3CC(=O)NS3(=O)=O)c(O)cc2cc1O [Compound 358, 5-(7-ethyl-1-fluoro-3,6-dihydroxynaphthalen-2-yl)-1λ^6,2,5-thiadiazolidine-1,1,3-trione]	1 to 10 nM
